Key:
Assay in all cases: relative viability (nuclei count vs DMSO), 5 days (fraction); higher = more cells survive
Carboplatin + Alpelisib = compound: C1CC(C1)(C(=O)O)C(=O)O.[NH2-].[NH2-].[Pt+2] [Carboplatin] + Cc1nc(NC(=O)N2CCC[C@H]2C(N)=O)sc1-c1ccnc(C(C)(C)C(F)(F)F)c1 [Alpelisib] (partner 2 µM)
Procedure, shortened: (§1)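 Five library-drug doses in √10 steps were combined with a fixed anchor-drug dose, or a single drug was given alone, by pin tool to lung cancer cell lines in 1536-well plates the day after seeding. Nuclei were stained and counted after 5 days. Relative viability is the nuclei count in treated wells over that in vehicle wells, taken as the median of duplicate plates.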

GSK126 + Trametinib = compound: CC[C@H](C)N1C=C(C2=C(C=C(C=C21)C3=CN=C(C=C3)N4CCNCC4)C(=O)NCC5=C(C=C(NC5=O)C)C)C [GSK126] + CC(=O)Nc1cccc(-n2c(=O)n(C3CC3)c(=O)c3c(Nc4ccc(I)cc4F)n(C)c(=O)c(C)c32)c1 [Trametinib] (partner 0.02 µM)
Procedure, shortened: as §1

GSK126 + Olaparib = compound: CC[C@H](C)N1C=C(C2=C(C=C(C=C21)C3=CN=C(C=C3)N4CCNCC4)C(=O)NCC5=C(C=C(NC5=O)C)C)C [GSK126] + O=C(c1cc(Cc2n[nH]c(=O)c3ccccc23)ccc1F)N1CCN(C(=O)C2CC2)CC1 [Olaparib] (partner 8 µM)
Procedure, shortened: as §1

MLN4924 + Lapatinib = compound: NS(=O)(=O)OC[C@@H]1C[C@@H](n2ccc3c(N[C@H]4CCc5ccccc54)ncnc32)C[C@@H]1O [MLN4924] + CS(=O)(=O)CCNCc1ccc(-c2ccc3ncnc(Nc4ccc(OCc5cccc(F)c5)c(Cl)c4)c3c2)o1 [Lapatinib] (partner 2 µM)
Procedure, shortened: as §1

Row | Cell Line | relative viability (Carboplatin + Alpelisib; first compound 0.08 µM) | relative viability (Carboplatin + Alpelisib; first compound 0.253 µM) | relative viability (Carboplatin + Alpelisib; first compound 0.8 µM) | relative viability (Carboplatin + Alpelisib; first compound 2.53 µM) | relative viability (Carboplatin + Alpelisib; first compound 8 µM) | relative viability (GSK126 + Trametinib; first compound 0.08 µM) | relative viability (GSK126 + Trametinib; first compound 0.253 µM) | relative viability (GSK126 + Trametinib; first compound 0.8 µM) | relative viability (GSK126 + Trametinib; first compound 2.53 µM) | relative viability (GSK126 + Trametinib; first compound 8 µM) | relative viability (GSK126 + Olaparib; first compound 0.08 µM) | relative viability (GSK126 + Olaparib; first compound 0.253 µM) | relative viability (GSK126 + Olaparib; first compound 0.8 µM) | relative viability (GSK126 + Olaparib; first compound 2.53 µM) | relative viability (GSK126 + Olaparib; first compound 8 µM) | relative viability (MLN4924 + Lapatinib; first compound 0.04 µM) | relative viability (MLN4924 + Lapatinib; first compound 0.1265 µM) | relative viability (MLN4924 + Lapatinib; first compound 0.4 µM) | relative viability (MLN4924 + Lapatinib; first compound 1.265 µM) | relative viability (MLN4924 + Lapatinib; first compound 4 µM)
1 | NCI-H596 | 0.475 | 0.574 | 0.458 | 0.423 | 0.445 | 0.803 | 0.687 | 0.697 | 0.862 | 0.733 | 0.713 | 0.703 | 0.702 | 0.847 | 0.758 | 1.1 | 1.05 | 0.438 | 0.397 | 0.38
2 | NCI-H647 | 1.23 | 1.14 | 1.23 | 1.12 | 0.771 | 0.55 | 0.461 | 0.381 | 0.44 | 0.413 | 0.742 | 0.438 | 0.57 | 0.714 | 0.56 | 0.817 | 0.539 | 0.0888 | 0.0473 | 0.0818
3 | NCI-H650 | 1.13 | 1 | 1.06 | 0.856 | 0.757 | 1.02 | 0.891 | 0.919 | 0.945 | 0.994 | 0.446 | 0.373 | 0.363 | 0.405 | 0.389 | 0.492 | 0.543 | 0.26 | 0.166 | 0.169
4 | NCI-H661 | 0.567 | 0.66 | 0.703 | 0.595 | 0.648 | 0.632 | 0.548 | 0.523 | 0.596 | 0.687 | 0.706 | 0.74 | 0.722 | 0.689 | 0.705 | 0.538 | 0.632 | 0.499 | 0.228 | 0.28
5 | NCI-H727 | 0.76 | 0.483 | 0.509 | 0.514 | 0.363 | 0.4 | 0.4 | 0.424 | 0.39 | 0.412 | 0.866 | 0.805 | 0.68 | 0.812 | 0.646 | 0.692 | 0.704 | 0.352 | 0.24 | 0.192
6 | NCI-H838 | 1.09 | 1.07 | 0.953 | 0.995 | 0.979 | 0.58 | 0.51 | 0.437 | 0.477 | 0.483 | 0.82 | 0.817 | 0.738 | 0.714 | 0.769 | 0.754 | 0.273 | 0.257 | 0.126 | 0.148
7 | NCI-H1355 | 0.885 | 0.866 | 0.843 | 0.687 | 0.721 | 0.435 | 0.412 | 0.4 | 0.421 | 0.468 | 0.809 | 0.754 | 0.772 | 0.752 | 0.774 | 0.952 | 1.02 | 0.64 | 0.181 | 0.166
8 | NCI-H1395 | 1.18 | 1.03 | 0.768 | 0.68 | 0.578 | 1.07 | 0.955 | 1.05 | 0.994 | 0.964 | 0.468 | 0.465 | 0.438 | 0.456 | 0.414 | 0.793 | 0.986 | 0.5 | 0.39 | 0.351

From the supplement of paper PMC10307832
